Assay results published in patent US8785351B2, “Herbicidal compositions containing bentazon and ALS inhibitor and ACCase inhibitor” (Dow AgroSciences LLC, priority 2012, dated 2014).

Tests used:
Test in all cases: Postemergence herbicidal activity of mixtures in the field (direct-seeded rice), visual weed control
Assay type in all cases: in vivo
[1] = tested on: Cyperus iria (CYPIR, rice flatsedge); settings: grams ai/ha: penoxsulam 1, bentazon-Na 112.5, cyhalofop-butyl 9.4, each alone or all three mixed, rice field trials
Protocol: (§1) Evaluation of Postemergence Herbicidal Activity of Mixtures in the Field
(§2) Field trials were conducted in Vietnam and Taiwan in cultivated direct-seeded rice using standard herbicide small plot research methodology. Plots varied from 1×2 meter (m) to 4×5 m (width×length) with 3-4 replicates per treatment. The rice crop was grown using normal cultural practices for fertilization, seeding, watering, flooding and maintenance to ensure good growth of the crop and the weeds.
(§3) All treatments in the field trials were applied using a backpack air sprayer with flat fan nozzles calibrated to apply 320 to 450 L/ha spray volume at approximately 30 PSI. Commercially available products of penoxsulam (Clipper 25OD), bispyribac-sodium (Nominee 100SC), bentazon-sodium (Basagran 480SL), cyhalofop-butyl (Clincher 100EC), and fenoxaprop-P-ethyl (Whip S) were mixed in water at appropriate formulated product rates to achieve the desired rates based on a unit area of application (hectare) to achieve the desired rates as shown. Treatments were rated at 7 to 42 days after application (DAA) as compared to the untreated control plants. Visual weed control was scored on a scale of 0 to 100 percent where 0 corresponds to no injury and 100 corresponds to complete kill.
(§4) All treatment results, both for the single product and mixtures, are an average of 3 to 4 replicates and the tank mix interactions are significant at the […] level.
(§5) Colby's equation was used to determine the herbicidal effects expected from the mixtures (Colby, S. R. Calculation of the synergistic and antagonistic response of herbicide combinations. Weeds 1967, 15, 20-22.).
(§6) The following equation was used to calculate the expected activity of mixtures containing […]: Expected=A+B+C−(AB+AC+BC)/100+(ABC)/10,000
(§7) A=observed efficacy of active ingredient A at the same concentration as used in the mixture.
(§8) B=observed efficacy of active ingredient B at the same concentration as used in the mixture.
(§9) C=observed efficacy of active ingredient C at the same concentration as used in the mixture.
(§10) All comparisons are an average of 3 to 4 replicates and are significant at the […] level.

[2] = tested on: Echinochloa crus-galli (ECHCG, barnyardgrass); settings: rice field trials
Protocol: as §1, §2, §3, §4, §5, §6, §7, §8, §9, §10

[3] = tested on: Fimbristylis miliacea (FIMMI, globe fringerush); settings: grams ai/ha: penoxsulam 10, bentazon-Na 900, cyhalofop-butyl 75, each alone or all three mixed, rice field trials
Protocol: as §1, §2, §3, §4, §5, §6, §7, §8, §9, §10

[4] = tested on: Leptochloa chinensis (LEFCH, Chinese sprangletop); settings: grams ai/ha: penoxsulam 1.6, bentazon-Na 112.5, cyhalofop-butyl 37.5, each alone or all three mixed, rice field trials
Protocol: as §1, §2, §3, §4, §5, §6, §7, §8, §9, §10

[5] = tested on: Monochoria vaginalis (MOOVA, monochoria); settings: rice field trials
Protocol: as §1, §2, §3, §4, §5, §6, §7, §8, §9, §10

[6] = grams ai/ha: penoxsulam 4 alone (6 in the mix), bentazon-Na 450, fenoxaprop-P-ethyl 8, each alone or all three mixed
[7] = grams ai/ha: penoxsulam 10, bentazon-Na 900, cyhalofop-butyl 75, each alone or all three mixed
[8] = grams ai/ha: bispyribac-Na 4, bentazon-Na 225, cyhalofop-butyl 75, each alone or all three mixed
[9] = grams ai/ha: penoxsulam 5, bentazon-Na 450, cyhalofop-butyl 37.5, each alone or all three mixed

Row | SMILES | % Visual Control CYPIR (42 DAA) Obs [1] [%] | % Visual Control ECHCG (7 DAA) Obs [2, 6] [%] | % Visual Control ECHCG (7 DAA) Obs [2, 7] [%] | % Visual Control ECHCG (14 DAA) Obs [2, 8] [%] | % Visual Control ECHCG (14 DAA) Obs [2, 7] [%] | % Visual Control ECHCG (28 DAA) Obs [2, 7] [%] | % Visual Control FIMMI (42 DAA) Obs [3] [%] | % Visual Control LEFCH (7 DAA) Obs [4] [%] | % Visual Control MOOVA (7 DAA) Obs [5, 6] [%] | % Visual Control MOOVA (7 DAA) Obs [5, 9] [%] | % Visual Control MOOVA (14 DAA) Obs [5, 9] [%]
1 | CC(C)N1C(=O)c2ccccc2NS1(=O)=O [Bentazon (Na), 3-(1-methylethyl)-1H-2,1,3-benzothiadiazin-4(3H)-one 2,2-dioxide] | 63 | 0 | 0 | 0 | 0 | 0 | 0 | 0 | 17 | 0 | 0
2 | COc1cc(OC)nc(Oc2cccc(Oc3nc(OC)cc(OC)n3)c2C(=O)[O-])n1.[Na+] [Bispyribac (Na), sodium 2,6-bis(4,6-dimethoxypyrimidin-2-yloxy)benzoate] | – | – | – | 0 | – | – | – | – | – | – | –
3 | CCCCOC(=O)[C@@H](C)Oc1ccc(Oc2ccc(C#N)cc2F)cc1 [Cyhalofop (Butyl), (R)-butyl 2-[4-(4-cyano-2-fluorophenoxy)phenoxy]propanoate] | 0 | – | 37 | 40 | 43 | 40 | 60 | 83 | – | 0 | 0
4 | CCOC(=O)[C@@H](C)Oc1ccc(Oc2nc3ccc(Cl)cc3o2)cc1 [Fenoxaprop-P (Ethyl), (R)-ethyl-2-[4-(6-chloro-1,3-benzoxazol-2-yloxy)phenoxy]propanoate] | – | 0 | – | – | – | – | – | – | 0 | – | –
5 | COc1cnc(OC)n2nc(NS(=O)(=O)c3c(OCC(F)F)cccc3C(F)(F)F)nc12 [Penoxsulam, 2-(2,2-difluoroethoxy)-N-(5,8-dimethoxy[1,2,4]triazolo[1,5-c]pyrimidin-2-yl)-6-(trifluoromethyl)benzenesulfonamide] | 75 | 61 | 58 | – | 60 | 60 | 78 | 0 | 22 | 77 | 87
